According to patent US4546098A, “Estrogen synthesis inhibitors” (The Rockefeller University, priority 1984, dated 1985):

target: T1, aromatase (Homo sapiens, UniProt P11511); experiment: Inhibition of formic acid formation from [19,19,19-3H]androst-4-ene-3,17-dione by placental microsomes; format: biochemical; conditions: placental microsomes 1 mg/ml (5 ml), pH 7.2, 37° C., 30 minutes; inhibitor 4 n mole, androstenedione 4 n mole; NADPH
T1 construct: incubated with 5 ml of a placental microsomes; from tissue; host or cells: placental microsomes
T1 sequence (P11511 1-503): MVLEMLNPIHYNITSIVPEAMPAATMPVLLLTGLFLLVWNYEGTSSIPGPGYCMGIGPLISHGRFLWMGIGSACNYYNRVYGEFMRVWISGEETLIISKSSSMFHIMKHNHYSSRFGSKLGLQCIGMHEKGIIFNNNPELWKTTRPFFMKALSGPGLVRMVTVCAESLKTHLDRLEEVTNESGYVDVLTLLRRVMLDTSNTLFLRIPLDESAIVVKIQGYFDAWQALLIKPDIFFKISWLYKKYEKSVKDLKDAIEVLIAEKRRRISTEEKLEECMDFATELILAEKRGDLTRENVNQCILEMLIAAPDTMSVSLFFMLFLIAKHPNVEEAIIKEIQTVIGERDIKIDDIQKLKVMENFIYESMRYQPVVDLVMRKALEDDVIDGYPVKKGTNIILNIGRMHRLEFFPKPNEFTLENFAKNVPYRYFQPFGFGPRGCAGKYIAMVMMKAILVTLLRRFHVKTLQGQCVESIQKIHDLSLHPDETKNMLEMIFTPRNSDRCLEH
Description: A mixture of [19,19,19-^3 H]androst-4-ene-3,17-dione diluted with cold androstenedione (2.8×10^6 dpm, 4 n mole) and an inhibitor (4 n mole) in ethanol (50 μl) was incubated with 5 ml of a placental microsomes (1 mg/ml of 0.05M tris-HCl, pH 7.2) in the presence of NADPH (5 mg), glucose-6-phosphate (2.5 mg), and glucose-6-phosphate dehydrogenase (3.1 units). The incubations were carried out at 37° C. for 30 minutes in air. A control incubation was carried out as above except that the inhibitor was excluded. The incubation mixture (1 ml) was mixed with 1M phosphoric acid (1 ml), flash frozen and lyophilized. Radioactivity in 0.5 ml of the distilled component was measured (A). And 1.2 ml of the distilled component was mixed with 0.3 ml of 1N sodium hydroxide, flash frozen, and lyophilized. Radioactivity in 0.5 ml of the distilled water was measured (B).

First: C=C1C=C2CC[C@@H]3[C@H](CC[C@]4(C)[C@@H](O)CC[C@@H]34)[C@@]2(CO)CC1 [Cmpd 5, 3-methylene-androst-4-ene-17β,19-diol]
Second: C=C1C=C2CC[C@H]3[C@@H]4CC[C@H](O)[C@@]4(C)CC[C@@H]3[C@@]2(C)CC1 [Cmpd. 1, 3-methylene-androst-4-ene-17β-ol]
The “% Inhibition of formic acid formation” value of the first is higher: 55% for the first, 43% for the second.

Compared with C=C1C=C2CC[C@@H]3[C@H](CC[C@]4(C)C(=O)CC[C@@H]34)[C@@]2(C)CC1 [Cmpd. 3, 3-methylene-androst-4-ene-17-one], C=C1C=C2CC[C@@H]3[C@H](CC[C@]4(C)C(=O)CC[C@@H]34)[C@@]2(CO)CC1 [Cmpd. 9, 3-methylene-androst-4-ene-19-ol-17-one] is higher in “% Inhibition of formic acid formation” value: 86% for the first, 90% for the second.

With C=C1C=C2CC[C@@H]3[C@H](CC[C@]4(C)C(=O)CC[C@@H]34)[C@@]2(C=O)CC1 [Cmpd. 53, 3-Methylene-androst-4-ene-17,19-dione] the “% Inhibition of formic acid formation” value was 70%.
